This note sets out measurements from patent publication US9464082B2, “Aryl and arylalkyl substituted pyrazolyl and pyrimidinyl tricyclic enones as antioxidant inflammation modulators” (AbbVie Inc., priority 2014, dated 2016).

SMILES strings stand for the structures. Some results are limits rather than exact numbers.

The test has as its system IFNγ-Induced NO Production. As to the kind of experiment: Nitric Oxide Suppression Assay (Suppression of IFNγ-Induced NO Production). The settings on record: RAW264.7; RAW 264.7 mouse macrophage cells; 2 hour pre-treatment with compound (3 μM to 0.3 nM, 10 point curve); 20 ng/mL interferon gamma, ~18 hour; Griess detection; n=2-3 in duplicates. The format is cell-based. On the procedure: RAW 264.7, a mouse macrophage cell line, was obtained from American Type Culture Collection (Manassas Va.) and maintained in the log phase of growth in Dulbecco's Modified Eagle's Medium (DMEM), 10% heat inactivated fetal calf serum and 100 units/mL antibiotic-antimycotic (AA). Cells were cultured and maintained in a humidified incubator at 37° C. under 5% CO2 and 95% air. Cells were sub-cultured every 3 days by scraping and were not used beyond passage 20. All cell culture supplies were obtained from Life Technologies (Grand Island, N.Y.).
RAW 264.7 cells were plated 1 day in advance of experiment at a concentration of 80,000 cells/well onto CellBIND® 96 well plates (Corning, N.Y.) in a total volume of 100 μL. The next day, pre-treat cells with compounds (from 3 μM to 0.3 nM serially diluted in a 10 point curve) from a 10× stock by adding 10 μL per well in complete DMEM media containing 10% fetal calf serum. The plates were centrifuged for 3 minutes at 400×g at room temperature followed by 2 hour incubation at 37° C. The cells were then incubated overnight at 37° C. with 10 μL of the insult, interferon gamma (R&D Systems, Minneapolis, Minn.), from a 10× stock for a final concentration of 20 ng/mL. The plates were centrifuged for 3 minutes at 400×g at room temperature followed by ˜18 hour incubation at 37° C. The following day, transfer 50 μL cell culture supernatant from each well into a clear bottom 96 well plate and follow the instructions from Promega's Griess Detection Kit #G2930 (Madison, Wis.) which involves the addition of 50 μL of the provided sulfanilamide solution for a 5-10 minute incubation at room temperature. Next add 50 μL of the provided N-1-napthylethylenediamine dihydrochloride (NED) solution for a 5-10 minute incubation at room temperature and protected from light. If any air bubbles were introduced into the well, the plates need to be centrifuged for 5 minutes at 400×g at room temperature to avoid interference with absorbance readings. The plates were read for absorbance within 30 minutes with a filter between 520 nm and 550 nm.
For the ability of compounds to suppress the increase in nitric oxide release, the percent maximal intensity of nitric oxide detected in each well was normalized to that induced by the peak value for 20 ng/mL of interferon gamma alone and plotted against the compound concentration to calculate IC50 values and to control for plate-to-plate variability. Concentration-response data were analyzed using GraphPad Prism (San Diego, Calif.); the IC50 values were derived from a single curve fit to the mean data of n=2-3, in duplicates.
All compounds were dissolved in dimethyl sulfoxide at 10 mM stock solutions and tested at a concentration that the dimethyl sulfoxide levels never exceeded 1%.
(Nitrite, measured by Griess reagent, commonly stands in for NO production.)
Usually IC50 stands for the concentration needed to halve the response being measured. In the case of `COc1ccc([C@]23C=C(C#N)C(=O)[C@@H](C)[C@@H]2CCc2cncnc23)cc1` [Example 70, (6aS,7S,10aR)-10a-(4-methoxyphenyl)-7-methyl-8-oxo-5,6,6a,7,8,10a-hexahydrobenzo[h]quinazoline-9-carbonitrile], the IC50 is 5.27 nM.

In the case of `Cc1nc(-c2cccc(CCC(=O)O)c2)c2c(n1)[C@@]1(c3ccccc3)C=C(C#N)C(=O)[C@@H](C)[C@@H]1CC2` [Example 155, 3-{3-[(6aS,7S,10aR)-9-cyano-2,7-dimethyl-8-oxo-10a-phenyl-5,6,6a,7,8,10a-hexahydrobenzo[h]quinazolin-4-yl]phenyl}propanoic acid], the IC50 is 107 nM.

As to `C[C@@H]1C(=O)C(C#N)=C[C@]2(c3ccccc3)c3n[nH]c(-c4cnn(-c5ccncc5)c4)c3CC[C@@H]12` [Example 159, (5aS,6S,9aR)-6-methyl-7-oxo-9a-phenyl-3-[1-(pyridin-4-yl)-1H-pyrazol-4-yl]-4,5,5a,6,7,9a-hexahydro-2H-benzo[g]indazole-8-carbonitrile], the IC50 came to 33.8 nM.

As for `COC(=O)CCc1cccc(-c2nc(C)nc3c2CC[C@H]2[C@H](C)C(=O)C(C#N)=C[C@]32c2ccccc2)c1` [Example 154, methyl 3-{3-[(6aS,7S,10aR)-9-cyano-2,7-dimethyl-8-oxo-10a-phenyl-5,6,6a,7,8,10a-hexahydrobenzo[h]quinazolin-4-yl]phenyl}propanoate], the IC50 turned out to be 47.5 nM.

For the molecule `COC(=O)c1cccc([C@]23C=C(C#N)C(=O)[C@@H](C)[C@@H]2CCc2c[nH]nc23)c1` [Example 62, methyl 3-[(5aS,6S,9aR)-8-cyano-6-methyl-7-oxo-2,4,5,5a,6,7-hexahydro-9aH-benzo[g]indazol-9a-yl]benzoate], the IC50 was 39.4 nM.

On to `COc1nc(Nc2ccc(Br)cc2)nc2c1CC[C@H]1[C@H](C)C(=O)C(C#N)=C[C@]21c1ccccc1` [Example 15, (6aS,7S,10aR)-2-[(4-bromophenyl)amino]-4-methoxy-7-methyl-8-oxo-10a-phenyl-5,6,6a,7,8,10a-hexahydrobenzo[h]quinazoline-9-carbonitrile], for which the IC50 is 30 nM.

In the case of `C[C@@H]1C(=O)C(C#N)=C[C@]2(c3cccc(C(=O)Nc4ccccc4)c3)c3ncncc3CC[C@@H]12` [Example 95, 3-[(6aS,7S,10aR)-9-cyano-7-methyl-8-oxo-6,6a,7,8-tetrahydrobenzo[h]quinazolin-10a(5H)-yl]-N-phenylbenzamide], the IC50 amounted to 15.5 nM.

Consider `C[C@@H]1C(=O)C(C#N)=C[C@]2(c3ccccc3)c3nn(C)c(-c4cccc(-c5cccc(NS(C)(=O)=O)c5)c4)c3CC[C@@H]12` [Example 150, N-{3′-[(5aS,6S,9aR)-8-cyano-2,6-dimethyl-7-oxo-9a-phenyl-4,5,5a,6,7,9a-hexahydro-2H-benzo[g]indazol-3-yl]biphenyl-3-yl}methanesulfonamide], for which the IC50 was found to be 2.26 nM.

Turning to `Cc1nc(-c2ccc(-c3cncnc3)cc2)c2c(n1)[C@@]1(c3ccccc3)C=C(C(N)=O)C(=O)[C@@H](C)[C@@H]1CC2` [Example 145, (6aS,7S,10aR)-2,7-dimethyl-8-oxo-10a-phenyl-4-[4-(pyrimidin-5-yl)phenyl]-5,6,6a,7,8,10a-hexahydrobenzo[h]quinazoline-9-carboxamide], the IC50 was greater than 1000 nM.

As for `C[C@@H]1C(=O)C(C#N)=C[C@]2(c3ccccc3)c3n[nH]c(-c4cccnc4)c3CC[C@@H]12` [Example 86, (5aS,6S,9aR)-6-methyl-7-oxo-9a-phenyl-3-(pyridin-3-yl)-4,5,5a,6,7,9a-hexahydro-2H-benzo[g]indazole-8-carbonitrile], the IC50 was 3.95 nM.

For the molecule `Cc1nc(-c2cccc3cn[nH]c23)c2c(n1)[C@@]1(c3ccc(F)cc3)C=C(C#N)C(=O)[C@@H](C)[C@@H]1CC2` [Example 93, (6aS,7S,10aR)-10a-(4-fluorophenyl)-4-(1H-indazol-7-yl)-2,7-dimethyl-8-oxo-5,6,6a,7,8,10a-hexahydrobenzo[h]quinazoline-9-carbonitrile], the IC50 turned out to be 7.27 nM.

As for `Cc1nc(-c2ccc(O)cc2)c2c(n1)[C@@]1(c3ccccc3)C=C(C#N)C(=O)[C@@H](C)[C@@H]1CC2` [Example 108, (6aS,7S,10aR)-4-(4-hydroxyphenyl)-2,7-dimethyl-8-oxo-10a-phenyl-5,6,6a,7,8,10a-hexahydrobenzo[h]quinazoline-9-carbonitrile], the IC50 was determined as 3.63 nM.

On to `C[C@@H]1C(=O)C(C#N)=C[C@]2(c3ccccc3)c3n[nH]c(-c4cnn(CCO)c4)c3CC[C@@H]12` [Example 117, (5aS,6S,9aR)-3-[1-(2-hydroxyethyl)-1H-pyrazol-4-yl]-6-methyl-7-oxo-9a-phenyl-4,5,5a,6,7,9a-hexahydro-2H-benzo[g]indazole-8-carbonitrile], for which the IC50 came out at 17.4 nM.

Take `C[C@@H]1C(=O)C(C#N)=C[C@]2(c3ccc(F)cc3)c3ncncc3CC[C@@H]12` [Example 50, (6aS,7S,10aR)-10a-(4-fluorophenyl)-7-methyl-8-oxo-5,6,6a,7,8,10a-hexahydrobenzo[h]quinazoline-9-carbonitrile]: the IC50 was determined as 10.3 nM.

`C[C@@H]1C(=O)C(C#N)=C[C@]2(c3ccccc3)c3nn(C(=O)Oc4ccccc4)cc3CC[C@@H]12` [Example 37, phenyl (5aS,6S,9aR)-8-cyano-6-methyl-7-oxo-9a-phenyl-4,5,5a,6,7,9a-hexahydro-2H-benzo[g]indazole-2-carboxylate]: the IC50 turned out to be 60.5 nM.

Regarding `C[C@@H]1C(=O)C(C#N)=C[C@]2(Cc3ccccc3)c3c(cnn3C)CC[C@@H]12` (racemic) [Example 163, rac-(5aS,6S,9aR)-9a-benzyl-1,6-dimethyl-7-oxo-4,5,5a,6,7,9a-hexahydro-1H-benzo[g]indazole-8-carbonitrile], the IC50 was found to be 406 nM.

For the molecule `COc1ccc([C@]23C=C(C#N)C(=O)[C@@H](C)[C@@H]2CCc2c(-c4cncn4C)nc(C)nc23)cc1` [Example 174, (6aS,7S,10aR)-10a-(4-methoxyphenyl)-2,7-dimethyl-4-(1-methyl-1H-imidazol-5-yl)-8-oxo-5,6,6a,7,8,10a-hexahydrobenzo[h]quinazoline-9-carbonitrile], the IC50 stood at 1.9 nM.

Turning to `Cc1nc(-c2cncn2C)c2c(n1)[C@@]1(c3ccccc3)C=C(C#N)C(=O)[C@@H](C)[C@@H]1CC2` [Example 17, (6aS,7S,10aR)-2,7-dimethyl-4-(1-methyl-1H-imidazol-5-yl)-8-oxo-10a-phenyl-5,6,6a,7,8,10a-hexahydrobenzo[h]quinazoline-9-carbonitrile], the IC50 came out at 3.25 nM.

Turning to `C[C@@H]1C(=O)C(C#N)=C[C@]2(c3ccccc3)c3nn(S(C)(=O)=O)cc3CC[C@@H]12` [Example 36, (5aS,6S,9aR)-6-methyl-2-(methylsulfonyl)-7-oxo-9a-phenyl-4,5,5a,6,7,9a-hexahydro-2H-benzo[g]indazole-8-carbonitrile], the IC50 is 69.3 nM.

On to `COc1ccc([C@]23C=C(C#N)C(=O)[C@@H](C)[C@@H]2CCc2c(-c4ccc(-c5ccn[nH]5)cc4)nc(C)nc23)cc1` [Example 80, (6aS,7S,10aR)-10a-(4-methoxyphenyl)-2,7-dimethyl-8-oxo-4-[4-(1H-pyrazol-5-yl)phenyl]-5,6,6a,7,8,10a-hexahydrobenzo[h]quinazoline-9-carbonitrile], for which the IC50 came to 7.43 nM.

As to `Cc1nc(-c2ccccc2)c2c(n1)[C@@]1(c3ccccc3)C=C(C#N)C(=O)[C@@H](C)[C@@H]1CC2` [Example 21, (6aS,7S,10aR)-2,7-dimethyl-8-oxo-4,10a-diphenyl-5,6,6a,7,8,10a-hexahydrobenzo[h]quinazoline-9-carbonitrile], the IC50 turned out to be 9.94 nM.

`Cc1nc(-c2cccc(-c3cccc(NS(C)(=O)=O)c3)c2)c2c(n1)[C@@]1(c3ccccc3)C=C(C#N)C(=O)[C@@H](C)[C@@H]1CC2` [Example 124, N-{3′-[(6aS,7S,10aR)-9-cyano-2,7-dimethyl-8-oxo-10a-phenyl-5,6,6a,7,8,10a-hexahydrobenzo[h]quinazolin-4-yl]biphenyl-3-yl}methanesulfonamide]: the IC50 turned out to be 1.35 nM.

Take `COc1ccc([C@]23C=C(C#N)C(=O)[C@@H](C)[C@@H]2CCc2c[nH]nc23)cc1` [Example 58, (5aS,6S,9aR)-9a-(4-methoxyphenyl)-6-methyl-7-oxo-4,5,5a,6,7,9a-hexahydro-2H-benzo[g]indazole-8-carbonitrile]: the IC50 was 33.4 nM.
